From US8071810B2, “C5a receptor antagonists” (Jerini AG, priority 2005, dated 2011) come the findings set out here.

Data set [1] addresses T1, human C5a receptor (CD88) (Homo sapiens, UniProt P21730).
T1 construct: expressed in transfected cells; host or cells: rat basophilic leukemia (RBL) cells, stably transfected
T1 sequence (P21730 1-350): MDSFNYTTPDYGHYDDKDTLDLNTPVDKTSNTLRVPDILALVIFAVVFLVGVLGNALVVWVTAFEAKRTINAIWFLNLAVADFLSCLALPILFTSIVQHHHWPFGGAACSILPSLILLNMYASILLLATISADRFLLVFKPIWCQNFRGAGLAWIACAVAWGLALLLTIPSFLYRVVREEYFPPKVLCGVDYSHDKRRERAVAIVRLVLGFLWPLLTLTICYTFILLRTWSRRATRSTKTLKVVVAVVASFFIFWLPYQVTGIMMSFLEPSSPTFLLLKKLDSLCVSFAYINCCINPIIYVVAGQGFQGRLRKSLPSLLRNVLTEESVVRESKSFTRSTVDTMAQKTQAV
Briefly: Agonism in enzyme release assay without C5a stimulus (Example 32). The note with it: concentration applied 7.1 μM. It is filed as cell-based. The procedure:
The assay has been described by Köhl (Köhl 1997 The Anaphylatoxins. In: Dodds, A. W., Sim, R. B. (Eds.), Complement: A Practical Approach. Oxford: 135). Basophile leukemia cells from rats (RBL), which express the human C5a receptor (CD88), are cultivated in DMEM with 10% fetal calf serum, 100 U/ml penicillin, 100 μg/ml streptomycin and 2 mM glutamin (all constituents are from Biochrome, Berlin) at 37° C. and with 10% CO2 until a confluent layer is obtained. All following details refer to a tissue culture flask with 75 cm^2 surface. The used up medium is removed. The cells are washed with 10 ml PBS (Dulbecco's PBS, Biochrome) and then covered with 3 ml cell dissociation solution (CDS, Sigma). The cells are incubated for 1 minute at room temperature. Then the CDS is removed and the cells are incubated for further 10-15 minutes at 37° C. to detach the cells completely from the flask. 20 μl solution of the compound to be testet are used in the assay. The assay solution must not contain more than 2.8% DMSO. The dilution series are prepared in ⅓ or ½ steps. To the 20 μl of the compound solutions 75 μl RBL cells are added which are prepared as follows: After the detachment of the cells from the flask surface they are taken up with 10 ml HAG-CM (20 mM HEPES; 125 mM NaCl, 5 mM KCl, 1 mM CaCl2, 1 mM MgCl2, 0.5 mM glucose, 0.25% BSA. HEPES preparation: 2.3 g/l HEPES salt+2.66 g/l HEPES acid) thermostated at 37° C. The cells are counted and centrifuged (200 g, 10 min). The cell pellet is taken up with pre-heated HAG-CM, and the cell density is adjusted to 2×10^6 Zellen/ml. The cells are incubated for 5 minutes at 37° C. 2.7 μl of a cytochalasin B solution (1000 μg/ml in DMSO, Sigma) are added per ml cell suspension. The Zellen are incubated for another 3 min at 37° C. Then, 75 μl of the cell suspension are added to the 20 μl solution containing the compounds to be tested. Thus a volume of […] per well is obtained. The cells are again incubated for 10 minutes at 37° C. Then 10 μl hrC5a (10.5 nM in HAG-CM, Sigma) are added per well, which is followed by 5 minutes incubation at 37° C. After this the plates are put on ice and centrifuged for 3 minutes at 1200×g and 4° C. 75 μl of the supernatant are added to 100 μl substrate solution (2.7 mg/ml p-nitrophenyl-N-acetyl-b-D-glucosaminide (Sigma) in 42.5 mM sodium acetate, pH 4.5). The plate is incubated for 1 hour at 37° C. Per well 75 μl 0.4 M glycine (pH 10.4) are added. After this the plate can be measured at a wave length of 405 nm. The IC50 value is determined by solving the four parameter equation y=((A−D)/(1+(x/C)^B))+D.
The only difference is the fact that 30 μl of the substance to be tested are mixed with 75 μl of the cell suspension described in example 28. The cells are not pre-incubated and no C5a is added to stimulate enzyme release.

A short description of data set [2]: AB permeability in TC-7 cell based assay (Example 34). It is filed as in vitro ADME. The following applies: human, Caco-2, TC-7 cells, apical pH 6.5 / basolateral pH 7.4, 120 min. As for the experimental part: Compounds to be tested are prepared at a concentration of 50 μM in HBSS-MES (5 mM, pH 6.5) (from a 10 mM stock solution in 100% DMSO). ^14C-mannitol (about 4 μM) is added and the solution is mixed and centrifuged. The supernatant is added to the apical side of a TC-7 cell culture (passage 15, in 24 well transwell plate) to obtain a DMSO concentration of 1%. At the basolateral side HBSS-HEPES (5 mM, pH 7.4) is placed. Subsequently, the cells are incubated for 120 minutes at 37° C. The integrity of the TC-7 cell layer is checked by means of the added mannitol (Papp <2.5 10^−6 cm/s). The Permeabilität Papp [cm/s] is equal to (VR×CR120)/(Δt×A×(CD,mid−CR,mid)). VR is the volume of the receiver chamber, CR120 the concentration the test compound in the receiver chamber after 120 minutes, Δt the incubation time, A the area of the TC-7 cell layer, CD,mid the midpoint concentration of the test substance in the donor chamber and CR,mid the concentration of the test compound in the receiver chamber.

For the next data set, the target named is T2, C5a receptor (Homo sapiens, UniProt P21730).
T2 sequence (P21730 1-350): T1 sequence (P21730 1-350)
Nature of the data set: Binding of 125I-C5a to human C5aR transfected HEK293 cells (Example 27). The note with it: 125I-C5a tracer, read-out: IC50 for the inhibition of the binding of C5a to the C5a receptor. Further details: expressed in transfected cells; host or cells: HEK293 cells. The procedure:
The binding studies are done as determination of IC50 values with radioactively labeled C5a (125I) as tracer. For this purpose, human C5aR transfected HEK293 cells are adjusted to a concentration of […]. 30 μl of the cell suspension are added into a microtiter plate. Then the C5a receptor antagonists are added followed by 10 minutes pre-incubation at room temperature. After that, 10 μl of labelled C5a are added (15.000 cpm). The mixture is now incubated over ice for 30 minutes. After this the cells are isolated by means of a filter plate (Millipore MHVB 4510) and washed two times with 100 μl HAG-CM each (see example 32). The cells are dried and, after transferring the filter plate onto the adapter plate (Canberra 6005178), 50 μl/well Microscint 0 are added and the plate is measured in the scintillation counter.

Molecules are shown by their SMILES.

A word on the Papp A→B: it is the apparent permeability from the apical to the basolateral side of a cell layer. The low end stands for poor permeation, the high end for ready permeation. A word on the IC50: it is the concentration that gives 50% inhibition.

As for `CCc1ccc(N(Cc2ccc(C)nc2)C(=O)Nc2c(CC)c(N)cc(Cl)c2CC)cc1` [compound 106, 3-(3-amino-5-chloro-2,6-diethyl-phenyl)-1-(4-ethyl-phenyl)-1-(6-methyl-pyridin-3-ylmethyl)-urea], the “Agonism (% of the maximum enzyme release induced by C5a)” value in data set [1] stood at 0.00%. Further, the Papp A→B at 120 min, 50 μM in data set [2] worked out at 22.3 ×10⁻⁶ cm/s.
With `CCc1c(N)cc(Cl)c(CC)c1NC(=O)N(Cc1ccc(Cl)cc1)c1ccc(CC(F)(F)F)cc1` [compound 103, 3-(3-amino-5-chloro-2,6-diethyl-phenyl)-1-(4-chloro-benzyl)-1-[4-(2,2,2-trifluoro-ethyl)-phenyl]-urea], on C5a receptor, the 50% inhibitory concentration (IC50) worked out at 58.6 nM. The “Agonism (% of the maximum enzyme release induced by C5a)” value in data set [1] came to 0.00%.
As for `CCc1ccc(N(C(=O)Nc2c(CC)c(N)cc(Cl)c2CC)C(C)c2ccc3c(c2)ncn3C)cc1` (stereo not drawn) [compound 122, 3-(3-amino-5-chloro-2,6-diethyl-phenyl)-1-(4-ethyl-phenyl)-1-[1-(1-methyl-1H-benzoimidazol-5-yl)-ethyl]-urea], the “Agonism (% of the maximum enzyme release induced by C5a)” value in data set [1] is 0.00%. The same compound gave a Papp A→B at 120 min, 50 μM in data set [2] of 3.5 ×10⁻⁶ cm/s.
